From patent publication US10722451B2, “Tree bark extract as anti-aging composition and uses thereof” (LES LABORATOIRES BIOFOREXTRA, priority 2017, dated 2020)

Tests used:
[1] = system: type I Collagen in human skin fibroblasts (WS1); assay: Stimulation of collagen type I in skin fibroblasts (immunofluorescence); assay type: cell-based; details: positive control at 10 ng/mL
Protocol: The effect of the extract on collagen stimulation was evaluated using specific antibodies to type I Collagen. Once bound to collagen, the primary antibody is detected by a secondary antibody on which a fluorophore is grafted. Human skin fibroblasts (WS1, ATCC CRL-1502) were seeded in 96-well microplates in a full decomplemented culture medium and incubated overnight at 37° C. and 5% CO2 to allow their adherence. Thereafter, the cells were incubated for 24 hours in the absence or presence of increasing concentrations of Red maple bark extract (12.5, 25, 50 and 100 μg/mL). The culture medium containing the extract was then removed and the cells were fixed with 95% ethanol for 10 minutes. The cells were washed three times with PBS and permeabilized with 0.5% Triton solution in PBS for 15 minutes. […] The fluorescence emitted by the secondary antibody was then measured and pictures were taken with a fluorescence microscope Cytation3.
The effect of the extract on collagen stimulation was evaluated using specific antibodies to type I Collagen. Once bound to collagen, the primary antibody is detected by a secondary antibody on which a fluorophore is grafted. […] The fluorescence emitted by the secondary antibody was then measured and pictures were taken with a fluorescence microscope Cytation3.

[2] = UV protection in vitro by spectrophotometer (SPF calculation); assay type: physicochemical; details: 20 μg/ml in ethanol; absorbance 290-320 nm

Compound	average increase of collagen (fluorescence) compared to untreated cells [1] [%]	SPF [2]
TGF-β	56	
CC1CC(OC(=O)c2ccccc2O)CC(C)(C)C1 (centres unmarked) [Homosalate]		3.9 ± 0.2
